The record followed here is publication PMC4715686 (Chemical biology & drug design, 2015).

For data set [1], the system named is T. brucei brucei 427 strain. The data set is described as follows: Antitrypanosomal activity, Alamar blue assay. In kind it is cell-based. The settings on record: for IC50: Trypanosoma brucei, 24 h, read-out: IC50 T. brucei. On the technique in general: The colour change of resazurin is a common sign of viable cells or microbes.
The next data set concerns the target rhodesain (Trypanosoma brucei rhodesiense, UniProt Q95PM0). The data set is described as follows: Rhodesain inhibition assay. In kind it is biochemical, T. brucei rhodesiense.
The nature of data set [2]: Hep G2 cell viability, MTT assay. Type of data set: cell-based. The following applies: human. (In general: Formazan colour is commonly taken as a measure of viable cells.)

With `Nc1ccc(-c2nc3ccc(Cc4ccc5nc(-c6ccc(N)cc6)[nH]c5c4)cc3[nH]2)cc1` [Compound 1, 4,4′-[methylenebis(1H-benzimidazole-6,2-diyl)]-dianiline], the IC50 in data set [1] came to 5800 ± 1000 nM; on rhodesain it was 890 ± 100 nM. In data set [2], this molecule came in with a viability at 72 h, 20 µM of 84.7 ± 5.79%.
On to `O=C(c1ccccc1)c1ccc2[nH]c(-c3ccc(NC(=O)c4ccccc4Cl)cc3)nc2c1` [Compound 7, N-[4-(5-benzoyl-1H-benzimidazol-2-yl)phenyl]-2-chlorobenzamide], for which, in data set [1], the “activity against T. brucei (in words)” value is reported as “active” and the IC50 stood at 2830 ± 260 nM. Moreover, in data set [1] (T. brucei vs Hep G2 cells), the “selectivity for the parasite over Hep G2 cells (in words)” value is reported as “considerable selectivity”. Further, at rhodesain, the IC50 is greater than 20000 nM and the “inhibitory activity against rhodesain (in words)” value was “did not display any inhibitory activity”. In data set [2], this molecule yielded a viability at 72 h, 20 µM of 86.2 ± 9.67%.

The term IC50 denotes the point on the concentration scale where inhibition reaches its midpoint. A word on the viability: it is a read-out of living cells in per cent, often relative to untreated cells. Read a high viability as better survival.
